According to US8629273B2, “Diazinylpyrazolyl compounds” (Bayer Intellectual Property GmbH, priority 2009, dated 2014):

System: Boophilus microplus
Experiment: Boophilus microplus test (BOOPMI injection)
Type: in vivo
Details: 20 μg/animal, injected into the abdomen, after 7 days
Description: Solvent: Dimethyl Sulphoxide To produce a suitable preparation of active compound, 10 mg of active compound are mixed with 0.5 ml of solvent, and the concentrate is diluted with water to the desired concentration. The active compound solution is injected into the abdomen (Boophilus microplus) and the animals are transferred into dishes and stored in a climatized room. The activity is monitored for deposition of fertile eggs. After 7 days, the activity in % is determined. 100% means that none of the ticks has laid fertile eggs.
For `COc1nccnc1-n1nc(C(F)(F)F)c(-c2cc(Cl)c3c(c2)OCO3)c1N=Cc1ccc(Cl)cc1` [Example 2-14], the “activity (no deposition of fertile eggs)” value was 100%. For `COc1nccnc1-n1nc(C(F)(F)F)c(-c2cc(Cl)cc(C(F)(F)F)c2)c1N=Cc1ccc(Cl)cc1` [Example 2-7], the “activity (no deposition of fertile eggs)” value was 100%. With `COc1cc(C=Nc2c(-c3cc(Cl)c4c(c3)OCO4)c(C(F)(F)F)nn2-c2ncccn2)cc(OC)c1OC` [Example 1-27] the “activity (no deposition of fertile eggs)” value was 100%. For `FC(F)(F)c1cc(Cl)cc(-c2c(C(F)(F)F)nn(-c3ncccn3)c2N=Cc2ccccc2)c1` [Example 1-12], the “activity (no deposition of fertile eggs)” value was 100%. With `FC(F)C(F)(F)c1nn(-c2ncccn2)c(N=Cc2ccccc2)c1-c1cc(Cl)c2c(c1)OCO2` [Example 1-24] the “activity (no deposition of fertile eggs)” value was 100%.

System: Ctenocephalides felis
Experiment: Ctenocephalides felis oral (CTECFE)
Type: in vivo
Details: 100 ppm in citrated cattle blood, after 2 days
Description: Solvent: 1 part by weight of dimethyl sulphoxide To produce a suitable preparation of active compound, 10 mg of active compound are mixed with 0.5 ml of dimethyl sulphoxide. One part of the concentrate is diluted with citrated cattle blood, and the desired concentration is prepared. 20 unfed adult fleas (Ctenocephalides felis) are placed into a chamber whose top and bottom ends are closed with gauze. A metal cylinder whose bottom end is closed with parafilm is placed onto the chamber. The cylinder contains the blood/active compound preparation, which can be taken up by the fleas through the parafilm membrane. After 2 days, the kill in % is determined. 100% means that all fleas have been killed; 0% means that none of the fleas have been killed.
With `COc1nccnc1-n1nc(C(F)(F)F)c(-c2cc(Cl)c3c(c2)OCO3)c1N=Cc1ccc(Cl)cc1` [Example 2-14] the kill was 100%. `COc1nccnc1-n1nc(C(F)(F)F)c(-c2cc(Cl)cc(C(F)(F)F)c2)c1N=Cc1ccc(Cl)cc1` [Example 2-7] showed a kill of 90%. Compound `COc1cc(C=Nc2c(-c3cc(Cl)c4c(c3)OCO4)c(C(F)(F)F)nn2-c2ncccn2)cc(OC)c1OC` [Example 1-27] has a kill of 100%. Compound `FC(F)(F)c1cc(Cl)cc(-c2c(C(F)(F)F)nn(-c3ncccn3)c2N=Cc2ccccc2)c1` [Example 1-12] has a kill of 100%. For `FC(F)C(F)(F)c1nn(-c2ncccn2)c(N=Cc2ccccc2)c1-c1cc(Cl)c2c(c1)OCO2` [Example 1-24], the kill was 100%.

System: Lucilia cuprina larvae
Experiment: Lucilia cuprina test (LUCICU)
Type: in vivo
Details: 100 ppm, treated horse meat, after 2 days
Description: Solvent: Dimethyl Sulphoxide To produce a suitable preparation of active compound, 10 mg of active compound are mixed with 0.5 ml of dimethyl sulphoxide, and the concentrate is diluted with water to the desired concentration. Containers containing horse meat treated with the active compound preparation of the desired concentration are populated with Lucilia cuprina larvae. After 2 days, the kill in % is determined. 100% means that all larvae have been killed; 0% means that none of the larvae have been killed.
`COc1nccnc1-n1nc(C(F)(F)F)c(-c2cc(Cl)c3c(c2)OCO3)c1N=Cc1ccc(Cl)cc1` [Example 2-14] showed a kill of 100%. `COc1nccnc1-n1nc(C(F)(F)F)c(-c2cc(Cl)cc(C(F)(F)F)c2)c1N=Cc1ccc(Cl)cc1` [Example 2-7] gave a kill of 100%. Compound `COc1cc(C=Nc2c(-c3cc(Cl)c4c(c3)OCO4)c(C(F)(F)F)nn2-c2ncccn2)cc(OC)c1OC` [Example 1-27] has a kill of 100%. `FC(F)(F)c1cc(Cl)cc(-c2c(C(F)(F)F)nn(-c3ncccn3)c2N=Cc2ccccc2)c1` [Example 1-12] gave a kill of 100%. In the case of `FC(F)C(F)(F)c1nn(-c2ncccn2)c(N=Cc2ccccc2)c1-c1cc(Cl)c2c(c1)OCO2` [Example 1-24], the kill is reported as 100%.

System: larvae of the mustard beetle (Phaedon cochleariae)
Experiment: Phaedon test (PHAECO spray treatment)
Type: in vivo
Details: 4 g/ha, after 7 days
Description: (§1) Solvents: 78.0 parts by weight of acetone • • 1.5 parts by weight of dimethyl formamide Emulsifier: 0.5 part by weight of alkylaryl polyglycol ether To produce a suitable preparation of active compound, 1 part by weight of active compound is mixed with the stated amounts of solvent and emulsifier, and the concentrate is diluted with emulsifier-containing water to the desired concentration. Discs of Chinese cabbage leaves (Brassica pekinensis) are sprayed with an active compound preparation of the desired concentration and, after drying, populated with larvae of the mustard beetle (Phaedon cochleariae). After 7 days, the activity in % is determined. 100% means that all beetle larvae have been killed; 0% means that none of the beetle larvae have been killed. The test was carried out and evaluated as described in Example B.4.
In the case of `FC(F)(F)c1cc(Cl)cc(-c2c(C(F)(F)F)nn(-c3ncccn3)c2N=Cc2ccccc2)c1` [Example 1-12], the “activity (beetle larvae killed)” value is reported as 100%.

Same assay, conditions: 100 g/ha, after 7 days
With `COc1cc(C=Nc2c(-c3cc(Cl)c4c(c3)OCO4)c(C(F)(F)F)nn2-c2ncccn2)cc(OC)c1OC` [Example 1-27] the “activity (beetle larvae killed)” value was 100%. For `FC(F)(F)c1cc(Cl)cc(-c2c(C(F)(F)F)nn(-c3ncccn3)c2N=Cc2ccccc2)c1` [Example 1-12], the “activity (beetle larvae killed)” value was 100%. For `FC(F)C(F)(F)c1nn(-c2ncccn2)c(N=Cc2ccccc2)c1-c1cc(Cl)c2c(c1)OCO2` [Example 1-24], the “activity (beetle larvae killed)” value was 100%.

System: caterpillars of the army worm (Spodoptera frugiperda)
Experiment: Spodoptera frugiperda test (SPODFR spray treatment)
Type: in vivo
Details: 20 g/ha, after 7 days
Description: as §1, with “maize” for “Chinese cabbage”, “(Zea mays)” for “(Brassica pekinensis)”, “caterpillars” for “larvae”, “army worm (Spodoptera frugiperda).” for “mustard beetle (Phaedon cochleariae).”, “caterpillars” for “beetle larvae”, “B.5.” for “B.4.”
For `FC(F)(F)c1cc(Cl)cc(-c2c(C(F)(F)F)nn(-c3ncccn3)c2N=Cc2ccccc2)c1` [Example 1-12], the “activity (caterpillars killed)” value was 100%.

Same assay, conditions: 100 g/ha, after 7 days
For `FC(F)(F)c1cc(Cl)cc(-c2c(C(F)(F)F)nn(-c3ncccn3)c2N=Cc2ccccc2)c1` [Example 1-12], the “activity (caterpillars killed)” value was 100%. For `FC(F)C(F)(F)c1nn(-c2ncccn2)c(N=Cc2ccccc2)c1-c1cc(Cl)c2c(c1)OCO2` [Example 1-24], the “activity (caterpillars killed)” value was 100%.

System: greenhouse red spider mite (Tetranychus urticae)
Experiment: Tetranychus test, OP resistant (TETRUR spray treatment)
Type: in vivo
Details: 100 g/ha, after 6 days
Description: Solvents: 78.0 parts by weight of acetone • • 1.5 parts by weight of dimethyl formamide Emulsifier: 0.5 part by weight of alkylaryl polyglycol ether To produce a suitable preparation of active compound, 1 part by weight of active compound is mixed with the stated amounts of solvent and emulsifier, and the concentrate is diluted with emulsifier-containing water to the desired concentration. Discs of bean leaves (Phaseolus vulgaris) which are infested by all stages of the greenhouse red spider mite (Tetranychus urticae) are sprayed with an active compound preparation of the desired concentration. After 6 days, the activity in % is determined. 100% means that all spider mites have been killed; 0% means that none of the spider mites has been killed. The test was carried out and evaluated as described in Example B.7.
With `FC(F)(F)c1cc(Cl)cc(-c2c(C(F)(F)F)nn(-c3ncccn3)c2N=Cc2ccccc2)c1` [Example 1-12] the “activity (spider mites killed)” value was 100%.

System: adult Musca domestica
Experiment: Musca domestica test (MUSCDO)
Type: in vivo
Details: 20 ppm, treated sponge
Description: Solvent: Dimethyl sulphoxide To prepare a suitable preparation of active compound, 10 mg of active component are mixed with 0.5 ml of dimethyl sulphoxide, and the concentrate is diluted with water to the desired concentration. Vessels containing a sponge which had been treated with the active compound preparation of the desired concentration are populated with adult Musca domestica. After the desired period of time, the kill in % is determined. 100% means that all flies have been killed; 0% means that none of the flies have been killed.
In the case of `FC(F)(F)c1cc(Cl)cc(-c2c(C(F)(F)F)nn(-c3ncccn3)c2N=Cc2ccccc2)c1` [Example 1-12], the kill is reported as 100%.

Same assay, conditions: 100 ppm, treated sponge
`COc1nccnc1-n1nc(C(F)(F)F)c(-c2cc(Cl)c3c(c2)OCO3)c1N=Cc1ccc(Cl)cc1` [Example 2-14] gave a kill of 90%. Work on `COc1nccnc1-n1nc(C(F)(F)F)c(-c2cc(Cl)cc(C(F)(F)F)c2)c1N=Cc1ccc(Cl)cc1` [Example 2-7] yielded a kill of 90%. In the case of `COc1cc(C=Nc2c(-c3cc(Cl)c4c(c3)OCO4)c(C(F)(F)F)nn2-c2ncccn2)cc(OC)c1OC` [Example 1-27], the kill is reported as 80%. `FC(F)C(F)(F)c1nn(-c2ncccn2)c(N=Cc2ccccc2)c1-c1cc(Cl)c2c(c1)OCO2` [Example 1-24] showed a kill of 80%.

System: Boophilus microplus strain Parkhurst (SP-resistant)
Experiment: Boophilus microplus test (DIP)
Type: in vivo
Details: 100 ppm
Description: Test animals: adult fed females of the Boophilus microplus strain Parkhurst (SP-resistant)
Solvent: Dimethyl sulphoxide
10 mg of active compound are dissolved in 0.5 ml of dimethyl sulphoxide. To produce a suitable formulation, the active compound solution is diluted with water to the particular desired concentration. This active compound preparation is pipetted into tubes. 8-10 ticks are transferred into a further tube provided with holes. The tube is dipped into the active compound preparation, with all ticks being wetted completely. After the liquid has run off, the ticks are transferred to filter discs in plastic dishes and kept in a climatized room. After the desired period of time, the activity is checked for deposition of fertile eggs. Eggs whose fertility is not visible from the outside are kept in glass tubes in a climatized cupboard under the larvae have hatched. An activity of 100% means that no tick has laid fertile eggs.
With `COc1nccnc1-n1nc(C(F)(F)F)c(-c2cc(Cl)c3c(c2)OCO3)c1N=Cc1ccc(Cl)cc1` [Example 2-14] the “activity (no deposition of fertile eggs)” value was 100%. With `COc1nccnc1-n1nc(C(F)(F)F)c(-c2cc(Cl)cc(C(F)(F)F)c2)c1N=Cc1ccc(Cl)cc1` [Example 2-7] the “activity (no deposition of fertile eggs)” value was 100%. With `COc1cc(C=Nc2c(-c3cc(Cl)c4c(c3)OCO4)c(C(F)(F)F)nn2-c2ncccn2)cc(OC)c1OC` [Example 1-27] the “activity (no deposition of fertile eggs)” value was 100%. In the case of `FC(F)C(F)(F)c1nn(-c2ncccn2)c(N=Cc2ccccc2)c1-c1cc(Cl)c2c(c1)OCO2` [Example 1-24], the “activity (no deposition of fertile eggs)” value is reported as 100%.

System: not listed separately
Experiment: logP by HPLC on reversed-phase columns (C 18), EU Guideline 79/831 Annex V.A8
Type: physicochemical
Details: ** LC-MS in the neutral range, pH 7.8, 0.001 molar aqueous ammonium bicarbonate and acetonitrile
For `COc1nccnc1-n1nc(C(F)(F)F)c(-c2cc(Cl)c3c(c2)OCO3)c1N=Cc1ccc(Cl)cc1` [Example 2-14], the logP was 5.1**. With `COc1nccnc1-n1nc(C(F)(F)F)c(-c2cc(Cl)cc(C(F)(F)F)c2)c1N=Cc1ccc(Cl)cc1` [Example 2-7] the logP was 6.01**. In the case of `COc1cc(C=Nc2c(-c3cc(Cl)c4c(c3)OCO4)c(C(F)(F)F)nn2-c2ncccn2)cc(OC)c1OC` [Example 1-27], the logP is reported as 3.82**. With `FC(F)(F)c1cc(Cl)cc(-c2c(C(F)(F)F)nn(-c3ncccn3)c2N=Cc2ccccc2)c1` [Example 1-12] the logP was 4.92**. With `FC(F)C(F)(F)c1nn(-c2ncccn2)c(N=Cc2ccccc2)c1-c1cc(Cl)c2c(c1)OCO2` [Example 1-24] the logP was 3.9**.
